Measured values reported in US20240335462A1, “SULFUR/PHOSPHORUS-CONTAINING ARYL COMPOUND AND APPLICATION THEREOF” (MEDSHINE DISCOVERY INC., priority 2021, published 2024).

Experiments:
[1] = system: JAK1/2 signaling pathway (IL-6/pSTAT1); experiment: IL-6-stimulated pSTAT1 in human PBMC (flow cytometry); type: cell-based; settings: CD4-positive cells
Procedure: The purpose of this experiment was to detect the inhibitory effect of the compounds on cytokine-activated JAK-STAT signaling pathways in human peripheral blood mononuclear cells (PBMC).
• a) PBMCs frozen in liquid nitrogen were thawed in a 37° C. water bath, and culture medium was added. The mixture was then centrifuged at 320 g for 3 minutes. • b) Cells were resuspended in culture medium, counted, and the cell concentration was adjusted to 5×10^5 cells/mL with culture medium. Subsequently, the cell suspension was inoculated into […] 96-well round-bottom plates, with 200 μL per well. The plates were incubated at 37° C. with 5% CO2 for 90 minutes. • c) Different concentrations of the test compound (starting at 2 μM, 5-fold serial dilution, a total of 8 concentrations) were added, followed by incubation at 37° C. with 5% CO2 for 30 minutes. • d) IL-6 (final concentration at 20 ng/mL) was added to the first round-bottom plate and incubated at 37° C. with 5% CO2 for 15 minutes. • e) IFNα (final concentration at 1000 U/mL) was added to the second round-bottom plate and incubated at 37° C. with 5% CO2 for 15 minutes. • f) IL-2 (final concentration at 4 ng/mL) was added to the third round-bottom plate and incubated at 37° C. with 5% CO2 for 15 minutes. • g) GM-CSF (final concentration at […]) was added to the fourth round-bottom plate and incubated at 37° C. with 5% CO2 for 15 minutes. • h) Cells were centrifuged at 320 g for 3 minutes, and each well was washed once with 200 μL of staining solution. • i) 50 μL of staining solution containing human CD33 antibody was added to each well of the GM-CSF-stimulated culture plate, and 50 μL of staining solution containing CD4 antibody was added to the remaining three culture plates. The staining was performed at 4° C. for 30 minutes. The cells were washed twice with the staining solution. • j) 100 μL of fixation buffer was added to each well, and the cells were fixed at 4° C. for 15 minutes. The cells were washed once with the staining solution. • k) 100 μL of permeabilization buffer was added to each well, and the cells were permeabilized at 4° C. for 20 minutes. The cells were washed twice with the staining solution. • l) 50 μL of staining solution containing human pSTAT1 antibody was added to each well of the IL-6 and IFN-α-stimulated culture plates, and 50 μL of staining solution containing human pSTAT5 antibody was added to each well of the IL-2 and GM-CSF-stimulated culture plates. The staining was performed at room temperature for 15 minutes. The cells were washed twice with the staining solution. • m) The cells were resuspended in 150 μL of staining solution. • n) The fluorescence intensity of pSTAT1 (stimulated by IL-6 and IFN-α) or pSTAT5 (stimulated by IL-2) in CD4-positive cells was detected using flow cytometer. The fluorescence intensity of pSTAT5 (stimulated by GM-CSF) in CD33-positive cells was also detected.
Data analysis was performed using Flowjo software to determine the IC50 of the compounds.

[2] = biological target: Ba/F3-FL-TYK2-E957D cells (Homo sapiens, UniProt P29597, E957D, cells depend on it); experiment: Proliferation of Ba/F3-FL-TYK2-E957D cells (CellTiter-Glo); type: cell-based, mouse; settings: 72 hours, read-out: Half maximal inhibitory concentration IC50 for cells Ba/F3-FL-TYK2-E957D
Outline: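 Ba/F3 cells stably expressing human full-length TYK2-E957D (JH1+JH2) or TEL-TYK2 (JH1 only) were plated at 2000 cells/well with 9-point 3-fold compound dilutions (0.1% DMSO) for 72 h at 37° C. Viable cells were measured by CellTiter-Glo luminescence; IC50 came from nonlinear S-curve fits.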

Ba/F3-TEL-TYK2 cells = experiment: Proliferation of Ba/F3-TEL-TYK2 cells (CellTiter-Glo); type: cell-based; settings: 72 hours, read-out: Half maximal inhibitory concentration IC50 for cells Ba/F3-TEL-TYK2
Source text: Adenosine triphosphate (ATP) serves as a universal energy carrier in various life processes, representing the smallest unit of energy storage and transfer. The CellTiter-Glo™ Luminescent Cell Viability Assay Kit utilizes luciferase as a detection agent. During the luminescent process, luciferase requires the participation of ATP. By adding CellTiter-Glo™ reagent to the cell culture medium and measuring the luminescence, the light signal was directly proportional to the amount of ATP in the system, and ATP was positively correlated with the number of viable cells. Therefore, cell proliferation can be detected by measuring ATP content using the CellTiter-Glo kit. In this test, the cell lines used were Ba/F3-FL-TYK2-E957D and Ba/F3-TEL-TYK2. Ba/F3-FL-TYK2-E957D cells can stably express the exogenously introduced human TYK2-E957D gene, and the TYK2-E957D gene sequence contains both JH1 and JH2 domains. On the other hand, Ba/F3-TEL-TYK2 cells can stably express the exogenously introduced human TEL-TYK2 gene, and the TEL-TYK2 gene sequence contains only the JH1 domain of TYK2.
The cell lines were cultured in an incubator at 37° C. with 5% CO2. Regular passaging was performed, and cells in the logarithmic growth phase were selected for plating.
• a) The test compounds were prepared into a 10 mM solution with DMSO, and then diluted to 0.3 or 1 mM with DMSO. • b) Preparation of 1000× compound storage plate (tube): The compounds were 3-fold serially diluted from the highest concentration to the lowest concentration, creating 9 different concentrations. • c) Preparation of 20× compound working solution: 49 μL of cell culture medium was added to a flat-bottomed 96-well transparent drug plate. From the 1000× compound storage plate, 1 μL of the compound was pipetted into the cell culture medium in the 96-well transparent drug plate. In the solvent control, 1 μL of DMSO was added. After the compound or DMSO was added, the mixture was homogenized using a multi-channel pipette.
• a) Cells were stained with trypan blue and viable cells were counted to ensure a cell viability of 90% or more. • b) 95 μL of cell suspension (2000 cells/well) was added to each well of the compound assay cell plate, and cell-free culture medium containing 0.1% DMSO was added to the Min control wells. • c) Administration in the compound assay cell plate: 5 μL of 20× compound working solution was added to the cell culture plate. 5 μL of DMSO-cell culture medium mixture was added to the Max control wells. The final concentration of DMSO was 0.1%. • d) The culture plate was then incubated in an incubator at 37° C. with 5% CO2 for 72 hours.
The following steps were conducted in accordance with the instructions of the Promega CellTiter-Glo Luminescent Cell Viability Assay Kit (Promega-G7573). • a) CellTiter-Glo buffer was thawed and brought to room temperature. • b) CellTiter-Glo substrate was also brought to room temperature. • c) CellTiter-Glo buffer was added to a bottle of CellTiter-Glo substrate to dissolve the substrate, thereby preparing CellTiter-Glo working solution. • d) The mixture was slowly vortexed and shaken to be fully dissolved. • e) The cell culture plate was removed and allowed to equilibrate to room temperature for 10 minutes. • f) 50 μL (equal to half the volume of cell culture medium in each well) of CellTiter-Glo working solution was added to each well. • g) The culture plate was shaken on an orbital shaker for 2 minutes to induce cell lysis. • h) The plate was then left at room temperature for 10 minutes to stabilize the luminescent signal. • i) The luminescent signal was detected using a SpectraMax Paradigm plate reader.
Data analysis was conducted using GraphPad Prism 5.0 software. Nonlinear S-curve regression was employed to fit the data and generate dose-response curves. From these curves, the IC50 values were calculated.

Sequence of Ba/F3-FL-TYK2-E957D cells (P29597 whole entry E957D): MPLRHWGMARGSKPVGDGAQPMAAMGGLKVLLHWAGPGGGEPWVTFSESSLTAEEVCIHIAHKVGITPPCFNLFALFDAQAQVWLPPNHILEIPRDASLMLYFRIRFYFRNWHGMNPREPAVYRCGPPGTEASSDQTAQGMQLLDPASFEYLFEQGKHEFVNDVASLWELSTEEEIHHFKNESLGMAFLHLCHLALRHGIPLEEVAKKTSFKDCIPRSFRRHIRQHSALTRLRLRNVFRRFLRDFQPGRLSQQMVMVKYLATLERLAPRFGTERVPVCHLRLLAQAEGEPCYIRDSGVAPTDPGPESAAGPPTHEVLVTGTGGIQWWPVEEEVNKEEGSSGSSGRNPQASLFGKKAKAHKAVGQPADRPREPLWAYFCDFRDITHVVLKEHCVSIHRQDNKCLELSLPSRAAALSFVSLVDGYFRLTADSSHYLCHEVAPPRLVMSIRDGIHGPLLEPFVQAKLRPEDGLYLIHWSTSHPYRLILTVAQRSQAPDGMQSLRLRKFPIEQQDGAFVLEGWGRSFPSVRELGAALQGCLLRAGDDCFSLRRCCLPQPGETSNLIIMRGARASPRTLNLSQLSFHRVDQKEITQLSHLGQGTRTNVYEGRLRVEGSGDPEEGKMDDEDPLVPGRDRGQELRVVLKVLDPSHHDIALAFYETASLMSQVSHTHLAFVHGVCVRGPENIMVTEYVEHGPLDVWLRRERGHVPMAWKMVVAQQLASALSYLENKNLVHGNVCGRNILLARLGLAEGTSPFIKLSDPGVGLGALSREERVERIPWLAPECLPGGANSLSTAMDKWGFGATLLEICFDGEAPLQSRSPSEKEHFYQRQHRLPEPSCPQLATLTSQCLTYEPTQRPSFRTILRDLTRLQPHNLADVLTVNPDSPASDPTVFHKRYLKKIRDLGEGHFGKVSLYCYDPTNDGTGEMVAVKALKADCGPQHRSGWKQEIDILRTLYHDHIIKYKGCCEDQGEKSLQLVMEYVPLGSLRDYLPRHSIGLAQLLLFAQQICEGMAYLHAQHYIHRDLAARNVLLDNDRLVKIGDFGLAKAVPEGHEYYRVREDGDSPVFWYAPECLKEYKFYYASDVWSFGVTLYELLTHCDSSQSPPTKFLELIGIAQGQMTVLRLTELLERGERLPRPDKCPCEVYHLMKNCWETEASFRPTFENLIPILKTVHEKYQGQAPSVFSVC

SMILES	IC50 [1] [µM]	GI50 [2] [µM]	IC50 (Ba/F3-TEL-TYK2 cells) [µM]
CNC(=O)c1nnc(NC(=O)C2CC2)cc1Nc1cccc(-c2ncc(S(=N)(=O)C(C)C)cn2)c1OC (single isomer, unassigned) [WX-011A]	0.087	0.0053	> 10
CNC(=O)c1nnc(NC(=O)C2CC2)cc1Nc1cccc(-c2ncc(S(=N)(=O)C(C)C)cn2)c1OC (single isomer, unassigned) [WX-011B]	0.0725	0.0033	> 10
CNC(=O)c1nnc(NC(=O)C2CC2)cc1Nc1cccc(-c2ccc(S(=N)(=O)C(C)C)cn2)c1OC (single isomer, unassigned) [WX-012A]	0.0524	0.0033	> 10
CNC(=O)c1nnc(NC(=O)C2CC2)cc1Nc1cccc(-c2ccc(S(=N)(=O)C(C)C)cn2)c1OC (single isomer, unassigned) [WX-012B]	0.0325	0.0024	> 10
CNC(=O)c1cnc(NC(=O)C2CC2)cc1Nc1cccc(-c2ccc(S(=O)(=O)C(C)C)cn2)c1OC.Cl [Hydrochloride of WX-020]	0.164	0.0015	> 10
CNC(=O)c1cnc(NC(=O)C2CC2)cc1Nc1cccc(-c2ncc(S(=O)(=O)C(C)C)cn2)c1OC [WX-019]	0.0997	0.002	> 10
CNC(=O)c1nnc(NC(=O)C2CC2)cc1Nc1cccc(-c2ccc(P(=O)(C3CC3)C3CC3)cn2)c1OC [WX-021]	0.0634	0.0025	> 10
